Results published in patent US6784137B2, “6-aryl-4-aminopicolinates and their use as herbicides” (Dow AgroSciences LLC, priority 2001, dated 2004).

How the values were obtained:
[1] = tested on: Giant Foxtail (Setaria faberi); test: Preemergence herbicidal activity, soil spray; type: in vivo; details: Setaria faberi, pre-emergence, 504 h, Table 5, visual score after 3 weeks, read-out: Pre-emergent % control SETFA; for pest or weed control at 140 ppm: rate 140 ppm; for pest or weed control at 560 ppm: rate 560 ppm
Excerpt: (§1) Seeds of the desired test plant species were planted in a soil matrix prepared by mixing a loam soil (43 percent silt, 19 percent clay, and 38 percent sand, with a pH of about 8.1 and an organic matter content of about 1.5 percent) and sand in a 70 to 30 ratio. The soil matrix was contained in plastic pots with a surface area of 113 square centimeters. When required to ensure good germination and healthy plants, a fungicide treatment and/or other chemical or physical treatment was applied. A weighed amount, determined by the highest rate to be tested, of each test compound was placed in a 20 mL glass vial and was dissolved in 4 mL of a 97:3 v/v (volume/volume) mixture of acetone and dimethyl sulfoxide to obtain concentrated stock solutions. […] The stock solutions obtained were diluted with a 99.9:0.1 mixture of water and Tween® 155 surfactant to obtain application solutions of known concentration. The solutions containing the highest concentration to be tested were prepared by diluting 2 mL aliquots of the stock solution with 15 mL of the mixture and lower concentrations were prepared by serial dilution of the stock solution. A 2.5 mL aliquot of each solution of known concentration was sprayed evenly onto the soil surface (113 sq. cm) of each seeded pot using a Cornwall 5.0 mL glass syringe fitted with a TeeJet TN-3 hollow cone nozzle to obtain thorough coverage of the soil in each pot. Control pots were sprayed in the same manner with the aqueous mixture. The treated pots and control pots were placed in a greenhouse maintained with an approximate 15 hr photoperiod and temperatures of about 23-29° C. during the day and 22-28° C. during the night. Nutrients and water were added on a regular basis and supplemental lighting was provided with overhead metal halide 1000-Watt lamps as necessary. The water was added by top-irrigation.

[2] = tested on: Crabgrass(large) (Digitaria sanguinalis); test: Preemergence herbicidal activity, soil spray; type: in vivo; details: Digitaria sanguinalis, pre-emergence, 504 h, Table 5, visual score after 3 weeks, read-out: Pre-emergent % control DIGSA; for pest or weed control at 140 ppm: rate 140 ppm; for pest or weed control at 560 ppm: rate 560 ppm
Excerpt: as §1

[3] = tested on: Lambsquarter (Chenopodium album); test: Preemergence herbicidal activity, soil spray; type: in vivo; details: Chenopodium album, pre-emergence, 504 h, Table 5, visual score after 3 weeks, read-out: Pre-emergent % control CHEAL; for pest or weed control at 140 ppm: rate 140 ppm; for pest or weed control at 560 ppm: rate 560 ppm, 100 complete kill or no germination
Excerpt: as §1

[4] = tested on: Pigweed (redroot) (Amaranthus retroflexus); test: Preemergence herbicidal activity, soil spray; type: in vivo; details: Amaranthus retroflexus, pre-emergence, 504 h, Table 5, visual score after 3 weeks, read-out: Pre-emergent % control AMARE; for pest or weed control at 140 ppm: rate 140 ppm; for pest or weed control at 560 ppm: rate 560 ppm
Excerpt: as §1

[5] = tested on: Lambsquarter (Chenopodium album); test: Postemergence herbicidal activity, greenhouse spray; type: in vivo; details: Chenopodium album, post-emergence, 336 h, visual score after 2 weeks, read-out: Post-emergent % control CHEAL; for pest or weed control at 500 ppm / pest or weed control at 250 ppm: Table 1; for pest or weed control at 500 ppm: rate 500 ppm; for pest or weed control at 125 ppm: Table 2, rate 125 ppm; for pest or weed control at 250 ppm: rate 250 ppm
How it was run: (§2)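 Greenhouse-grown plants (7–21 days, ~15 h photoperiod, 23–29 °C day) at first or second true leaf stage were sprayed to full coverage with compound in acetone/water/isopropanol/DMSO/crop oil/Triton X-155 carrier. Controls received carrier alone; plants were sub-irrigated afterwards.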

[6] = tested on: Cocklebur (Xanthium strumarium); test: as above; type: in vivo; details: Xanthium strumarium, post-emergence, 336 h, visual score after 2 weeks, read-out: Post-emergent % control XANST; for pest or weed control at 500 ppm / pest or weed control at 250 ppm: Table 1; for pest or weed control at 500 ppm: rate 500 ppm, 0 no injury, 100 complete kill; for pest or weed control at 125 ppm: Table 2, rate 125 ppm; for pest or weed control at 250 ppm: rate 250 ppm
How it was run: as §2

[7] = tested on: Barnyardgrass (Echinochloa crus-galli); test: as above; type: in vivo; details: Echinochloa crus-galli, post-emergence, 336 h, visual score after 2 weeks, read-out: Post-emergent % control ECHCG; for pest or weed control at 500 ppm / pest or weed control at 250 ppm: Table 1; for pest or weed control at 500 ppm: rate 500 ppm; for pest or weed control at 125 ppm: Table 2, rate 125 ppm; for pest or weed control at 250 ppm: rate 250 ppm
How it was run: as §2

[8] = tested on: Yellow nutsedge (Cyperus esculentus); test: as above; type: in vivo; details: Cyperus, post-emergence, 336 h, visual score after 2 weeks, read-out: Post-emergent % control CYPES; for pest or weed control at 500 ppm / pest or weed control at 250 ppm: Table 1; for pest or weed control at 500 ppm: rate 500 ppm; for pest or weed control at 125 ppm: Table 2, rate 125 ppm; for pest or weed control at 250 ppm: rate 250 ppm
How it was run: as §2

Compound | melting point | pest or weed control at 140 ppm [1] | pest or weed control at 140 ppm [2] | pest or weed control at 140 ppm [3] | pest or weed control at 140 ppm [4] | pest or weed control at 500 ppm [5] | pest or weed control at 500 ppm [6] | pest or weed control at 500 ppm [7] | pest or weed control at 500 ppm [8] | pest or weed control at 125 ppm [5] | pest or weed control at 125 ppm [6] | pest or weed control at 125 ppm [7] | pest or weed control at 125 ppm [8] | pest or weed control at 560 ppm [1] | pest or weed control at 560 ppm [2] | pest or weed control at 560 ppm [3] | pest or weed control at 560 ppm [4] | other results
Nc1cc(-c2ccc(Cl)c(Cl)c2)nc(C(=O)O)c1Cl [Compound 150, 4-Amino-3-chloro-6-(3,4-dichlorophenyl)pyridine-2-carboxylic acid] | 185 to 186 °C | 100% | 90% | 100% | 100% | 100% | 100% | 95% | 95% |  |  |  |  |  |  |  |  | 
Nc1c(F)c(-c2ccc(Cl)cc2F)nc(C(=O)O)c1Cl [Compound 189, 4-Amino-3-chloro-5-fluoro-6-(4-chloro-2-fluorophenyl)pyridine-2-carboxylic acid] | 154 to 155 °C | 100% | 100% | 100% | 100% |  |  |  |  | 90% | 90% | 90% | 90% |  |  |  |  | 
Nc1cc(-c2ccc(Cl)c(F)c2)nc(C(=O)O)c1Cl [Compound 181, 4-Amino-3-chloro-6-(4-chloro-3-fluorophenyl)pyridine-2-carboxylic acid] | 156 to 157 °C | 100% | 100% | 100% | 100% | 100% | 100% | 100% | 100% | 100% | 100% | 70% | 85% |  |  |  |  | 
Nc1c(F)c(C(=O)O)nc(-c2ccccc2Cl)c1F [Compound 202, 4-Amino-3,5-difluoro-6-(6-chlorophenyl)pyridine-2-carboxylic acid] | 166 to 167 °C (dec.) | 95% | 100% | 95% | 100% | 100% | 100% | 100% | 95% | 100% | 100% | 70% | 80% |  |  |  |  | 
Nc1cc(-c2ccc(Cl)cc2)nc(C(=O)O)c1Cl [Compound 154, 4-Amino-3-chloro-6-(4-chlorophenyl)pyridine-2-carboxylic acid] | 165 °C | 100% | 100% | 100% | 100% | 100% | 100% | 100% | 100% | 100% | 100% | 70% | 90% |  |  |  |  | 
COC(=O)c1nc(-c2ccc(F)c(Cl)c2)cc(N)c1Cl [Compound 39, Methyl 4-amino-3-chloro-6-(3-chloro-4-fluorophenyl)pyridine-2-carboxylate] | 169 to 170 °C | 75% | 95% | 95% | 100% | 100% | 100% | 95% | 99% |  |  |  |  |  |  |  |  | 
Nc1c(F)c(-c2ccc3c(c2)CCO3)nc(C(=O)O)c1Cl [Compound 197, 4-Amino-3-chloro-5-fluoro-6-(2,3-dihydro-5-benzofuranyl)pyridine-2-carboxylic acid] | 171 °C |  |  |  |  |  |  |  |  | 100% | 100% | 85% | 85% | 100% | 100% | 100% | 100% | pest or weed control at 250 ppm [5]: 100%; pest or weed control at 250 ppm [6]: 100%; pest or weed control at 250 ppm [7]: 90%; pest or weed control at 250 ppm [8]: 95%
CCc1ccc(-c2cc(N)c(Cl)c(C(=O)O)n2)cc1 [Compound 175, 4-Amino-3-chloro-6-(4-ethylphenyl)pyridine-2-carboxylic acid] | 152 °C | 95% | 100% | 100% | 95% | 99% | 100% | 80% | 0% |  |  |  |  |  |  |  |  | 
COC(=O)c1nc(-c2ccc(Cl)cc2Cl)c(F)c(N)c1Cl [Compound 88, Methyl 4-amino-3-chloro-5-fluoro-6-(2,4-dichlorophenyl)pyridine-2-carboxylate] | 122 °C |  |  |  |  |  |  |  |  | 100% | 100% | 85% | 95% | 70% | 70% | 100% | 100% | pest or weed control at 250 ppm [5]: 100%; pest or weed control at 250 ppm [6]: 100%; pest or weed control at 250 ppm [7]: 85%; pest or weed control at 250 ppm [8]: 95%
COc1ccc(-c2cc(N)c(Cl)c(C(=O)O)n2)cc1 [Compound 141, 4-Amino-3-chloro-6-(4-methoxyphenyl)pyridine-2-carboxylic acid] | 192 °C |  |  |  |  |  |  |  |  |  |  |  |  | 70% | 60% | 100% | 98% | pest or weed control at 250 ppm [5]: 100%; pest or weed control at 250 ppm [6]: 100%; pest or weed control at 250 ppm [7]: 80%; pest or weed control at 250 ppm [8]: 10%
Nc1cc(-c2cccc(Cl)c2)nc(C(=O)O)c1Cl [Compound 143, 4-Amino-3-chloro-6-(3-chlorophenyl)pyridine-2-carboxylic acid] | 171 °C |  |  |  |  | 100% | 100% | 70% | 40% |  |  |  |  | 100% | 100% | 100% | 100% | 
